Measurements as given in US11142526B2, “Spirocycle compounds and methods of making and using same” (H. Lundbeck A/S, priority 2017, dated 2021).
pIC50: −log10 of the molar value. Where two headings read alike, the source gives them in different places.

Assays:
MAGL [1] = biological target: MAGL (Homo sapiens (Human), UniProt Q99685); assay: In vitro competitive activity-based protein profiling (gel-based, FP-Rh or HT-01 probe); type: biochemical
Method: In Vitro Competitive Activity-Based Protein Profiling.
Proteomes (human prefrontal cortex or cell membrane fractions) (50 μL, 1.0 mg/mL total protein concentration) were preincubated with varying concentrations of inhibitors at 37° C. After 30 min, FP-Rh or HT-01 (1.0 μL, 50 μM in DMSO) was added and the mixture was incubated for another 30 min at room temperature. Reactions were quenched with SDS loading buffer (15 μL—4×) and run on SDS-PAGE.

MAGL [2] = biological target: T1, MAGL (Mus musculus (Mouse), UniProt O35678); assay: Mouse brain proteomes from inhibitor treated mice (oral gavage, brain MAGL activity 4 h after administration); type: in vivo; details: 5 mg/kg oral gavage
Method: Preparation of Mouse Brain Proteomes from Inhibitor Treated Mice.
Inhibitors were administered to wild-type C57B1/6J by oral gavage in a vehicle of polyethylene glycol.

MAGL [3] = biological target: T1, MAGL; assay: In vitro competitive activity-based protein profiling, mouse brain proteome; type: biochemical; details: for inhibition at 1 µM: mouse; for pIC50: mouse brain
[4] = human PC3, read-out: MAGL % Inhibition at 1 μM (human PC3)
[5] = human PFC (prefrontal cortex), read-out: MAGL % Inhibition at 1 μM (human PFC)
[6] = human PC3, read-out: MAGL Human PC3 (IC50)
[7] = human PFC (prefrontal cortex), read-out: MAGL Human PFC (IC50)

T1 sequence (O35678 whole entry): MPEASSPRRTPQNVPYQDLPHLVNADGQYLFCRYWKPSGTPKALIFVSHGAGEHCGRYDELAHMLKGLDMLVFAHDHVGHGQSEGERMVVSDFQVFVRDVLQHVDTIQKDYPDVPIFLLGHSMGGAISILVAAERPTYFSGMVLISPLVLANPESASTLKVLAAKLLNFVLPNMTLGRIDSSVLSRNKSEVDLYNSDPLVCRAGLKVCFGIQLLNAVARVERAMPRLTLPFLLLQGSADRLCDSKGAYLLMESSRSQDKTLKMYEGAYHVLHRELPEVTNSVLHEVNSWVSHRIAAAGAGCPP
Chain of MAGL (Homo sapiens (Human), UniProt Q99685) (Q99685 whole entry): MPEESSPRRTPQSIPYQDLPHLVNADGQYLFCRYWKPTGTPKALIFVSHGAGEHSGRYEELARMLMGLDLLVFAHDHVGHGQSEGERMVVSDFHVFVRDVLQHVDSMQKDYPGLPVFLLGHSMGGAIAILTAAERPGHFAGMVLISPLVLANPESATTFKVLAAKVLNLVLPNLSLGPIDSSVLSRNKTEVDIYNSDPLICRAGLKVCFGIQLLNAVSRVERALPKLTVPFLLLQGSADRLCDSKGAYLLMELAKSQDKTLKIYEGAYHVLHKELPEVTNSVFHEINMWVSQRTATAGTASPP

Row | SMILES | inhibition at 1 µM (MAGL [1]; [4]) | inhibition at 1 µM (MAGL [1]; [5]) | pIC50 (MAGL [1]; [6]) | pIC50 (MAGL [1]; [7]) | inhibition at 1 µM (MAGL [3]) | pIC50 (MAGL [3]) | MAGL % Inhibition at 5 mg/kg (Mouse) (MAGL [2])
1 | O=C(OC(C(F)(F)F)C(F)(F)F)N1CCC2(CCCN2C(=O)c2cn3c(n2)CN(C2CC2)CC3)CC1 [Example 2, 1,1,1,3,3,3-Hexafluoropropan-2-yl 1-(7-cyclopropyl-5,6,7,8-tetrahydroimidazo[1,2-a]pyrazine-2-carbonyl)-1,8-diazaspiro[4.5]decane-8-carboxylate] | > 75% | > 75% | > 7.00 | > 7.00 | > 75% | > 7.00 | ### (% inhibition is greater than or equal to 75%)
2 | O=C(OC(C(F)(F)F)C(F)(F)F)N1CCC2(CCCN2C(=O)c2cncnc2N2CCCC2)CC1 [Example 5, 1,1,1,3,3,3-Hexafluoropropan-2-yl 1-(4-(pyrrolidin-1-yl)pyrimidine-5-carbonyl)-1,8-diazaspiro[4.5]decane-8-carboxylate] |  | > 75% | > 7.00 | > 7.00 | > 75% |  | ### (% inhibition is greater than or equal to 75%)
3 | O=C(OC(C(F)(F)F)C(F)(F)F)N1CCC2(CCCN2C(=O)C2(c3cccnn3)CC2)CC1 [Example 179, 1,1,1,3,3,3-Hexafluoropropan-2-yl 1-(1-(pyridazin-3-yl)cyclopropane-1-carbonyl)-1,8-diazaspiro [4.5]decane-8-carboxylate] | > 75% | > 75% | > 7.00 |  | > 75% |  | ## (% inhibition is less than 75% and greater than 25%)
4 | Cc1ccc2nc(Cl)c(CN3CCCC34CCN(C(=O)OC(C(F)(F)F)C(F)(F)F)CC4)cc2c1 [Example 49, 1,1,1,3,3,3-Hexafluoropropan-2-yl 1-((2-chloro-6-methylquinolin-3-yl)methyl)-1,8-diazaspiro[4.5] decane-8-carboxylate] |  |  | > 7.00 |  | > 75% | > 7.00 | ### (% inhibition is greater than or equal to 75%)
5 | COCC(C)N1CCn2cc(C(=O)N3CCCC34CCN(C(=O)OC(C(F)(F)F)C(F)(F)F)CC4)nc2C1 (stereo not drawn) [Example 169, 1.1,1,3,3,3-Hexafluoropropan-2-yl 1-(7-(1-methoxypropan-2-yl)-5,6,7,8-tetrahydroimidazo [1,2-a]pyrazine-2-carbonyl)-1,8-diazaspiro[4.5] decane-8-carboxylate] | > 75% | > 75% | > 7.00 |  | > 75% |  | # (% inhibition less or equal to 25%)
6 | CN(Cc1cc2cc(Cl)ccc2s1)C1(C)CCN(C(=O)OC(C(F)(F)F)C(F)(F)F)CC1 [Example 62, 1,1,1,3,3,3-Hexafluoropropan-2-yl 4-(((5-chlorobenzo[b]thiophen-2-yl)methyl)(methyl)amino)-4-methylpiperidine-1-carboxylate] |  |  | > 7.00 |  | > 75% | > 7.00 | ### (% inhibition is greater than or equal to 75%)
7 | CC1(CN2CCn3cc(C(=O)N4CCCC45CCN(C(=O)OC(C(F)(F)F)C(F)(F)F)CC5)nc3C2)COC1 [Example 170, 1,1,1,3,3,3-Hexafluoropropan-2-yl 1-(7-((3-methyloxetan-3-yl)methyl)-5,6,7,8-tetrahydroimidazo [1,2-a]pyrazine-2-carbonyl)-1,8-diazaspiro[4.5] decane-8-carboxylate] | > 75% | > 75% | > 7.00 |  | > 75% |  | # (% inhibition less or equal to 25%)
8 | CN(C(=O)c1cn2c(n1)CN(C1CC1)CC2)C1(C)CCN(C(=O)OC(C(F)(F)F)C(F)(F)F)CC1 [Example 18, 1,1,1,3,3,3-Hexafluoropropan-2-yl 4-(7-cyclopropyl-N-methyl-5,6,7,8-tetrahydroimidazo[1,2-a]pyrazine-2-carboxamido)-4-methylpiperidine-1-carboxylate] | > 75% | > 75% | > 7.00 |  | > 75% | > 7.00 | ### (% inhibition is greater than or equal to 75%)

Now from value to compound, other results behind:

Row | inhibition at 1 µM (MAGL [1]; [4]) | inhibition at 1 µM (MAGL [1]; [5]) | pIC50 (MAGL [1]; [6]) | pIC50 (MAGL [1]; [7]) | inhibition at 1 µM (MAGL [3]) | pIC50 (MAGL [3]) | SMILES | MAGL % Inhibition at 5 mg/kg (Mouse) (MAGL [2])
9 | > 75% |  | > 7.00 |  | > 75% |  | O=C(OC(C(F)(F)F)C(F)(F)F)N1CCC2(CCCN2C(=O)c2cn3c(n2)CN(C2COC2)CC3)CC1 [Example 161, 1.1,1,3,3,3-Hexafluoropropan-2-yl 1-(7-(oxetan-3-yl)-5,6,7,8-tetrahydroimidazo [1,2-a]pyrazine-2-carbonyl)-1,8-diazaspiro[4.5] decane-8-carboxylate] | ## (% inhibition is less than 75% and greater than 25%)
10 |  |  | > 7.00 |  | > 75% | > 7.00 | Cc1cc(C)c2[nH]c(C(=O)N3CCCC34CCN(C(=O)OC(C(F)(F)F)C(F)(F)F)CC4)c(C)c2c1 [Example 63, 1,1,1,3,3,3-Hexafluoropropan-2-yl 1-(3,5,7-trimethyl-1H-indole-2-carbonyl)-1,8-diazaspiro[4.5] decane-8-carboxylate] | ### (% inhibition is greater than or equal to 75%)
11 | > 75% | > 75% | > 7.00 |  | > 75% |  | CC1(NC(=O)c2nnc3n2CCN(C2CCOC2)C3)CCN(C(=O)OC(C(F)(F)F)C(F)(F)F)CC1 (stereo not drawn) [Example 208, 1,1,1,3,3,3-Hexafluoropropan-2-yl 4-methyl-4-(7-(THF-3-yl)-5,6,7,8-tetrahydro-[1,2,4]triazolo [4,3-a]pyrazine-3-carboxamido) piperidine-1-carboxylate] | ### (% inhibition is greater than or equal to 75%)
12 | > 75% | > 75% | > 7.00 |  | > 75% |  | CC1(NC(=O)c2nnc3n2CCN(C2CCOCC2)C3)CCN(C(=O)OC(C(F)(F)F)C(F)(F)F)CC1 [Example 209, 1,1,1,3,3,3-Hexafluoropropan-2-yl 4-methyl-4-(7-(tetrahydro-2H-pyran-4-yl)-5,6,7,8-tetrahydro-[1,2,4]triazolo [4,3-a]pyrazine-3-carboxamido) piperidine-1-carboxylate] | ### (% inhibition is greater than or equal to 75%)
13 | > 75% | > 75% | > 7.00 |  | > 75% |  | CN(C(=O)c1nnc2n1CCN(C1CC1)C2)C1(C)CCN(C(=O)OC(C(F)(F)F)C(F)(F)F)CC1 [Example 20, 1,1,1,3,3,3-hexafluoropropan-2-yl 4-(7-cyclopropyl-N-methyl-5,6,7,8-tetrahydro-[1,2,4]triazolo[4,3-a]pyrazine-3-carboxamido)-4-methylpiperidine-1-carboxylate] | ### (% inhibition is greater than or equal to 75%)
14 | > 75% | > 75% | > 7.00 |  | > 75% |  | COc1nccc(C2(C(=O)N3CCCC34CCN(C(=O)OC(C(F)(F)F)C(F)(F)F)CC4)CC2)n1 [Example 200, 1,1,1,3,3,3-Hexafluoropropan-2-yl 1-(1-(2-methoxypyrimidin-4-yl)cyclopropane-1-carbonyl)-1,8-diazaspiro [4.5]decane-8-carboxylate] | ### (% inhibition is greater than or equal to 75%)
